Measurements taken from ChEMBL document CHEMBL5505984, “Carbazole to indolazepinone scaffold morphing leads to potent cell-active dengue antivirals” (Eur J Med Chem, 2024).
“And” between values parts separate entries of the source, which are not always exact repeats. Equal values may be shown once. The source made the active and inactive calls. The calls are words filed in the database; no cut-off is given here.

Assays:
dengue virus type 2 [1] = test: Antiviral activity against Dengue virus 2 infected in human Huh-7 cells assessed as clearance of viral RNA relative to control; type: functional; parameters: concentration or dose not given beside the values
dengue virus type 2 [2] = test: Antiviral activity Dengue virus 2 by cell based assay; type: functional, organism-based
dengue virus type 3 = test: Antiviral activity Dengue virus 3 by cell based assay; type: functional, organism-based
dengue virus type 1 = test: Antiviral activity Dengue virus 1 by cell based assay; type: functional, organism-based
dengue virus type 4 = test: Antiviral activity Dengue virus 4 by cell based assay; type: functional, organism-based
dengue virus type 2 [3] = test: Antiviral activity Dengue virus 2 D2Y10 by cell based assay; type: functional, organism-based
dengue virus type 2 [4] = test: Antiviral activity against Dengue virus 2 infected in human Huh-7 cells assessed as inhibition of plaque formation relative to control; type: functional
Zika virus = test: Antiviral activity Zika virus by cell based assay; type: functional, organism-based
dengue virus type 2 [5] = test: Antiviral activity against Dengue virus 2 D2Y10 infected in human THP-1 cells assessed as inhibition of secondary antibody dependent enhancement-driven infection relative to control; type: functional
dengue virus type 2 [6] = test: Antiviral activity against Dengue virus 2 infected in human Huh-7 cells assessed as clearance of viral RNA at 100 uM; type: functional, organism-based
dengue virus type 2 [7] = test: Antiviral activity against Dengue virus 2 infected in human Huh-7 cells assessed as clearance of viral RNA at 10 uM; type: functional, organism-based
dengue virus type 2 [8] = test: Antiviral activity against Dengue virus 2 infected in human Huh-7 cells assessed as reduction in plaque reduction relative to control; type: functional; parameters: scale not given: the % may be the effect or the level left

SMILES: N/C(=N\O)c1cccc(CNC(=O)c2cn(Cc3cccc(Br)c3)c3cc(-c4cccc(/C(N)=N/O)c4)ccc23)c1
- Activity (dengue virus type 2 [1]): >95%
- EC50 (dengue virus type 2 [2]): 6900 nM

SMILES: N/C(=N\O)c1ccc(CNC(=O)c2cn(Cc3cccc(Br)c3)c3ccc(-c4cccc(/C(N)=N/O)c4)cc23)cc1
- Activity (dengue virus type 2 [1]): >95%
- EC50 (dengue virus type 2 [2]): 2270 nM

SMILES: N/C(=N\O)c1cccc(CNC(=O)c2cn(Cc3cccc(Br)c3)c3ccc(-c4cccc(/C(N)=N/O)c4)cc23)c1
- Activity (dengue virus type 2 [1]): >95%
- EC50 (dengue virus type 2 [2]): 1000 nM

SMILES: N/C(=N\O)c1ccc(CN2CCc3cn(Cc4ccc(Br)nc4)c4cc(-c5cccc(/C(N)=N/O)c5)cc(c34)C2=O)cc1
- Activity (dengue virus type 2 [1]): >95%
- EC50 (dengue virus type 2 [2]): 960 nM

SMILES: N/C(=N\O)c1ccc(CN2CCc3cn(Cc4ccc(Br)cc4)c4cc(-c5ccc(/C(N)=N/O)s5)cc(c34)C2=O)cc1
- EC50 (dengue virus type 3): 160 nM
- EC50 (dengue virus type 1): 790 nM
- Activity (dengue virus type 2 [1]): >95%
- EC50 (dengue virus type 4): 2250 nM
- EC50 (dengue virus type 2 [3]): 330 nM
- inhibition (INH) (dengue virus type 2 [4]): 100%
- EC50 (dengue virus type 2 [2]): 610 nM
- EC50 (Zika virus): 1420 nM
- inhibition (INH) (dengue virus type 2 [5]): 60%

SMILES: N/C(=N\O)c1cccc(-c2ccc3c(C(=O)N4CCN(c5cccc(/C(N)=N/O)c5)CC4)cn(Cc4ccc(Br)cc4)c3c2)c1
- Activity (dengue virus type 2 [6]): inactive
- EC50 (dengue virus type 2 [2]): 1130 nM

SMILES: N/C(=N\O)c1cccc(-c2ccc3c(C(=O)N4CCN(c5cccc(/C(N)=N/O)c5)CC4)cn(Cc4ccc(Br)nc4)c3c2)c1
- Activity (dengue virus type 2 [6]): inactive
- EC50 (dengue virus type 2 [2]): 1000 nM

SMILES: N/C(=N\O)c1cccc(NC(=O)c2nn(Cc3cccc(Br)c3)cc2NC(=O)c2cccc(/C(N)=N/O)c2)c1
- EC50 (dengue virus type 2 [2]): 7020 nM

SMILES: N/C(=N\O)c1ccc(CN2CCc3cn(Cc4ccc(Br)cc4)c4cc(-c5cccc(/C(N)=N/O)c5)cc(c34)C2=O)cc1
- EC50 (dengue virus type 3): 120 nM
- EC50 (dengue virus type 1): 1260 nM
- Activity (dengue virus type 2 [1]): >95%
- EC50 (dengue virus type 4): 950 nM
- EC50 (dengue virus type 2 [3]): 100 nM
- inhibition (INH) (dengue virus type 2 [4]): 97%
- EC50 (dengue virus type 2 [2]): 100 nM
- EC50 (Zika virus): 1760 nM
- inhibition (INH) (dengue virus type 2 [5]): 100%

SMILES: N/C(=N\O)c1cccc(NC(=O)c2cn(CCn3cc(Br)cn3)c3ccc(-c4cccc(/C(N)=N/O)c4)cc23)c1
- Activity (dengue virus type 2 [7]): inactive
- EC50 (dengue virus type 2 [2]): 1830 nM

SMILES: N/C(=N\O)c1ccc(CN2CCc3cn(Cc4cccc(Br)c4)c4cc(-c5ccc(/C(N)=N/O)cc5)cc(c34)C2=O)cc1
- Activity (dengue virus type 2 [8]): <85%

SMILES: N/C(=N\O)c1ccc(CN2CCc3cn(Cc4cccc(Br)c4)c4cc(-c5cccc(/C(N)=N/O)c5)cc(c34)C2=O)cc1
- EC50 (dengue virus type 3): 1440 nM
- EC50 (dengue virus type 1): 1030 nM
- Activity (dengue virus type 2 [1]): >95%
- EC50 (dengue virus type 4): 1240 nM
- EC50 (dengue virus type 2 [3]): 380 nM
- inhibition (INH) (dengue virus type 2 [4]): 95%
- EC50 (dengue virus type 2 [2]): 660 nM
- EC50 (Zika virus): 3400 nM
- inhibition (INH) (dengue virus type 2 [5]): 100%

SMILES: N/C(=N\O)c1cccc(-c2ccc3c(C(=O)N4CCN(c5cccc(/C(N)=N/O)c5)CC4)cn(Cc4cccc(Br)c4)c3c2)c1
- Activity (dengue virus type 2 [6]): inactive
- EC50 (dengue virus type 2 [2]): 1230 nM

SMILES: N/C(=N\O)c1cccc(NC(=O)c2nn(Cc3cccc(Br)c3)c3ccc(-c4cccc(/C(N)=N/O)c4)cc23)c1
- Activity (dengue virus type 2 [1]): inactive
- EC50 (dengue virus type 2 [2]): 2190 nM

SMILES: N/C(=N\O)c1cccc(CN2CCc3cn(Cc4cccc(Br)c4)c4cc(-c5cccc(/C(N)=N/O)c5)cc(c34)C2=O)c1
- Activity (dengue virus type 2 [1]): >95%
- EC50 (dengue virus type 2 [2]): 1350 nM

SMILES: C#C[C@@]1(O)[C@H](O)[C@@H](CO)O[C@H]1n1ccc2c(N)ncnc21
- EC50 (dengue virus type 3): 870 nM
- EC50 (dengue virus type 1): 860 nM
- EC50 (dengue virus type 4): 110 nM
- EC50 (dengue virus type 2 [3]): 780 nM
- inhibition (INH) (dengue virus type 2 [4]): 100%
- EC50 (dengue virus type 2 [2]): 640 nM
- EC50 (Zika virus): 120 nM
- inhibition (INH) (dengue virus type 2 [5]): 100%

SMILES: N/C(=N\O)c1cccc(NC(=O)c2cn(Cc3ccc(Br)cc3)c3ccc(-c4cccc(/C(N)=N/O)c4)cc23)c1
- Activity (dengue virus type 2 [1]): >95%
- EC50 (dengue virus type 2 [2]): 4480 nM

SMILES: N/C(=N\O)c1cccc(-c2cc3c4c(cn(Cc5cccc(Br)c5)c4c2)CCN(Cc2ccc(/C(N)=N/O)s2)C3=O)c1
- Activity (dengue virus type 2 [8]): <85%

SMILES: N/C(=N\O)c1cccc(NC(=O)c2cn(Cc3cccc(Br)c3)c3ccc(-c4cccc(/C(N)=N/O)c4)cc23)c1
- Activity (dengue virus type 2 [1]): >=95% and >95%
- EC50 (dengue virus type 2 [2]): 1800 nM
